Results as given in ChEMBL document CHEMBL5543121, “Drug Repurposing of ACT001 to Discover Novel Promising Sulfide Prodrugs with Improved Safety and Potent Activity for Neutrophil-Mediated Antifungal Immunotherapy” (J Med Chem, 2024).
Activity calls are given as the source filed them. The rule behind the calls is not given here.

How the values were obtained:
Neutrophil [1] = assay: Induction of apoptosis in mouse neutrophils assessed as early apoptotic cells at 20 uM incubated for 16 hrs by Annexin V-FITC/PI staining based flow cytometry analysis (reference value: 26.9%); assay type: toxicity, cell-based
[2] = Induction of apoptosis in mouse neutrophils assessed as live cells at 20 uM incubated for 16 hrs by Annexin V-FITC/PI staining based flow cytometry analysis (reference value: 46.6%); assay type: toxicity, cell-based, Neutrophil; conditions: read-out: Activity
[3] = Potency index, ratio of test compound IC50 to ACT001 IC50 for cytotoxicity against mouse neutrophils assessed as reduction in cell viability incubated for 16 hrs by flow cytometry analysis; assay type: toxicity, cell-based, Neutrophil; conditions: read-out: Ratio IC50
Neutrophil [4] = assay: Induction of apoptosis in mouse neutrophils assessed as dead cells at 20 uM incubated for 16 hrs by Annexin V-FITC/PI staining based flow cytometry analysis (reference value: 2.04%); assay type: toxicity, cell-based
[5] = test system: Polymorphonuclear neutrophil; assay: Inhibition of fungal curdlan induced CXCL2 protein expression in mouse polymorphonuclear neutrophils at 40 uM incubated for 4 hrs by ELISA; assay type: functional, cell-based
[6] = Acute toxicity in C57BL/6 mouse assessed as signs of morbidity at 500 mg/kg, po administered as single dose and measured every day for 14 days; assay type: organism-based; conditions: in vivo, 336 h, time 14 day
[7] = Subacute toxicity in C57BL/6 mouse assessed as histopathological changes in liver at 100 mg/kg, po administered daily for 14 days; assay type: organism-based; conditions: in vivo, 336 h, time 14 day
Neutrophil [8] = assay: Induction of neutrophil-mediated antifungal immunity against Candida albicans SC5314 infected in mouse assessed as increase in neutrophil infiltration in kidney at 50 to 100 mg/kg, po administered once a day for 3 days; assay type: functional, organism-based; conditions: dose 50-100 mg/kg, time 3.0 day
[9] = Subacute toxicity in C57BL/6 mouse assessed as change in liver weight at 100 mg/kg, po administered daily for 14 days; assay type: organism-based; conditions: in vivo, 336 h, time 14 day
Candida albicans [10] = assay: Induction of neutrophil-mediated antifungal immunity against Candida albicans SC5314 infected in mouse assessed as reduction in fungal burden in kidneys at 50 to 100 mg/kg, po administered once a day for 3 days; assay type: functional, organism-based; conditions: dose 50-100 mg/kg, time 3.0 day
[11] = Therapeutic index, ratio of IC50 for cytotoxicity against mouse neutrophils to IC50 for inhibition of fungal curdlan induced PD-L1 expression in mouse neutrophils; assay type: toxicity; conditions: read-out: Ratio IC50
Neutrophil [12] = assay: Induction of apoptosis in mouse neutrophils assessed as late apoptotic cells at 40 uM incubated for 16 hrs by Annexin V-FITC/PI staining based flow cytometry analysis (reference value: 24.4%); assay type: toxicity, cell-based
[13] = Cmax in male Sprague-Dawley rat at 10 mg/kg, po by LC-MS/MS analysis; assay type: ADME, organism-based; conditions: in vivo
[14] = Inhibition of fungal curdlan induced PD-L1 expression in mouse neutrophils at 40 uM relative to control; assay type: functional, Neutrophil; conditions: Mus musculus, Neutrophil
Neutrophil [15] = assay: Effect on STAT3 protein level in curdlan induced mouse bone marrow neutrophils at 40 uM measured upto 60 mins by Western blot analysis; assay type: functional, cell-based
[16] = Acute toxicity in C57BL/6 mouse assessed as change in spleen weight at 500 mg/kg, po administered as single dose and measured after 14 days; assay type: organism-based; conditions: in vivo, 336 h, time 14 day
Neutrophil [17] = assay: Induction of apoptosis in mouse neutrophils assessed as late apoptotic cells at 20 uM incubated for 16 hrs by Annexin V-FITC/PI staining based flow cytometry analysis (reference value: 24.4%); assay type: toxicity, cell-based
Candida albicans [18] = assay: Induction of neutrophil-mediated antifungal immunity against Candida albicans SC5314 infected in mouse assessed as increase in animal survival rate at 50 to 100 mg/kg, po administered once a day for 3 days; assay type: functional, organism-based; conditions: dose 50-100 mg/kg, time 3.0 day
[19] = Volume of distribution at steady state in male Sprague-Dawley rat at 2 mg/kg, iv by LC-MS/MS analysis; assay type: ADME, organism-based; conditions: in vivo, read-out: Vdss
[20] = MRT (0 to t) in male Sprague-Dawley rat at 10 mg/kg, po by LC-MS/MS analysis; assay type: ADME, organism-based; conditions: in vivo
[21] = Acute toxicity in C57BL/6 mouse assessed as effect on urea level in serum at 500 mg/kg, po administered as single dose and measured every day for 14 days; assay type: organism-based; conditions: in vivo, 336 h, time 14 day
[22] = Acute toxicity in C57BL/6 mouse assessed as histopathological changes in lung at 500 mg/kg, po administered as single dose and measured after 14 days; assay type: organism-based; conditions: in vivo, 336 h, time 14 day
[23] = AUC (0 to t) in male Sprague-Dawley rat at 10 mg/kg, po by LC-MS/MS analysis; assay type: ADME, organism-based; conditions: in vivo
[24] = Subacute toxicity in C57BL/6 mouse assessed as signs of morbidity at 100 mg/kg, po administered daily for 14 days and measured every day; assay type: organism-based; conditions: in vivo, 336 h, time 14 day
[25] = Cmax in male Sprague-Dawley rat at 2 mg/kg, iv by LC-MS/MS analysis; assay type: ADME, organism-based; conditions: in vivo
[26] = Induction of apoptosis in mouse neutrophils assessed as live cells at 40 uM incubated for 16 hrs by Annexin V-FITC/PI staining based flow cytometry analysis (reference value: 46.6%); assay type: toxicity, cell-based, Neutrophil; conditions: read-out: Activity
Candida albicans [27] = assay: Induction of neutrophil-mediated antifungal immunity against Candida albicans SC5314 infected in mouse assessed as inhibition of CXCL2 protein expression in bone marrow at 50 to 100 mg/kg, po administered once a day for 3 days by ELISA; assay type: functional, organism-based; conditions: dose 50-100 mg/kg, time 3.0 day
[28] = Half life in male Sprague-Dawley rat at 2 mg/kg, iv by LC-MS/MS analysis; assay type: ADME, organism-based; conditions: in vivo
[29] = Subacute toxicity in C57BL/6 mouse assessed as effect on AST level in serum at 100 mg/kg, po administered daily for 14 days and measured every day; assay type: organism-based; conditions: in vivo, 336 h, time 14 day
Candida albicans [30] = assay: Induction of neutrophil-mediated antifungal immunity against Candida albicans SC5314 infected in mouse assessed as reduction in PD-L1 positive Ly6G positive neutrophils in kidney at 50 to 100 mg/kg, po administered once a day for 3 days by flow cytometry analysis; assay type: functional, organism-based; conditions: dose 50-100 mg/kg, time 3.0 day
Candida albicans [31] = assay: Antifungal activity against candida albicans SC5314 infected in mouse assessed as reduction in PD-L1 positive Ly6G-positive neutrophils in kidney at 200 mg/kg, po administered on day 1 and 3; assay type: functional, organism-based; conditions: time 1-3 day
Candida albicans [32] = assay: Induction of neutrophil-mediated antifungal immunity against Candida albicans SC5314 infected in mouse assessed as reduction in PD-L1 positive Ly6G positive neutrophils in bone marrow at 50 to 100 mg/kg, po administered once a day for 3 days by flow cytometry analysis; assay type: functional, organism-based; conditions: dose 50-100 mg/kg, time 3.0 day
[33] = Acute toxicity in C57BL/6 mouse assessed as animal death at 500 mg/kg, po administered as single dose and measured every day for 14 days; assay type: organism-based; conditions: in vivo, 336 h, time 14 day
[34] = Cytotoxicity against mouse neutrophils assessed as cell viability at 40 uM relative to control; assay type: toxicity, cell-based, Neutrophil; conditions: mouse neutrophils, read-out: Activity
Candida albicans [35] = assay: Induction of neutrophil-mediated antifungal immunity against Candida albicans SC5314 infected in mouse assessed as inhibition of CXCL1 protein expression in bone marrow at 50 to 100 mg/kg, po administered once a day for 3 days by ELISA; assay type: functional, organism-based; conditions: dose 50-100 mg/kg, time 3.0 day
[36] = Oral bioavailability in male Sprague-Dawley rat at 10 mg/kg by LC-MS/MS analysis; assay type: ADME, organism-based; conditions: in vivo
[37] = Subacute toxicity in C57BL/6 mouse assessed as histopathological changes in spleen at 100 mg/kg, po administered daily for 14 days; assay type: organism-based; conditions: in vivo, 336 h, time 14 day

C[C@@]1(O)CC[C@]23O[C@@]2(C)CC[C@@H]2[C@H](OC(=O)[C@H]2CS(=O)(=O)c2c(Cl)cccc2Cl)[C@@H]13
Activity (Neutrophil [1]): 29.3%
viability at 16 h, 20 µM [2]: 41.4%
selectivity ratio at 16 h [3]: 10.9
Activity (Neutrophil [4]): 2.24%
inhibition [5]: Active
Activity [6]: Non-Toxic
Activity [7]: Non-Toxic
Activity (Neutrophil [8]): Active
Activity [9]: Non-Toxic
Activity (Candida albicans [10]): Active
selectivity ratio [11]: > 85.1
Activity (Neutrophil [12]): 30.8%
Cmax [13]: 114 ng/mL
inhibition at 40 µM [14]: 80.2%
Activity (Neutrophil [15]): inactive
Activity [16]: Non-Toxic
Activity (Neutrophil [17]): 27%
Activity (Candida albicans [18]): Active
Vd [19]: 7.46 L/kg
MRT last [20]: 104 min
Activity [21]: Non-Toxic
Activity [22]: Non-Toxic
AUC(0-t) [23]: 167 ng·h/mL
Activity [24]: Non-Toxic
Cmax [25]: 175 ng/mL
viability at 16 h, 40 µM [26]: 38%
Activity (Candida albicans [27]): Active
half-life [28]: 10.2 min
Activity [29]: Non-Toxic
Activity (Candida albicans [30]): Active
Activity (Candida albicans [31]): Active
Activity (Candida albicans [32]): Active
Activity [33]: Non-Toxic
viability at 40 µM [34]: 81.5%
Activity (Candida albicans [35]): Active
bioavailability [36]: 45.1%
Activity [37]: Non-Toxic
